Results on 7 compounds are retold here after ChEMBL document CHEMBL5365465, “Oxetanes in Drug Discovery Campaigns” (J Med Chem, 2023).

Structures are written as SMILES. Some results are limits rather than exact numbers.

A short description of data set [1]: Aqueous solubility of compound at pH 2. It is filed as physicochemical.
Data set [2] is described as follows: Metabolic stability in human liver microsomes assessed as intrinsic clearance. Format: ADME, Microsome. On the technique in general: Liver microsomes are a subcellular fraction often used to study metabolism.
The target of data set [3] is Histone-lysine N-methyltransferase EZH2 (Homo sapiens, UniProt Q15910). Briefly: Inhibition of EZH2 (unknown origin).
Data set [4] concerns the target T1, Leucine-rich repeat serine/threonine-protein kinase 2 (Homo sapiens, UniProt Q5S007). Briefly: Inhibition of LRRK2 in human PBMCs assessed as reduction in […] phosphorylation.
Data set [5] addresses T1, Leucine-rich repeat serine/threonine-protein kinase 2. The data set is described as follows: Inhibition of LRRK2 (unknown origin).
In data set [6] the target is Platelet-derived growth factor receptor alpha (Homo sapiens, UniProt P16234, D842V). The data set is described as follows: Inhibition of PDGFRalpha D842V mutant (unknown origin).
Data set [7] addresses Mast/stem cell growth factor receptor Kit (Homo sapiens, UniProt P10721, D816V). Briefly: Inhibition of KIT D816V mutant (unknown origin).
Another data set has as its target Protease (Human immunodeficiency virus 1, UniProt Q9YQ12). Briefly: Inhibition of HIV protease.

T1 sequence (Q5S007 whole entry): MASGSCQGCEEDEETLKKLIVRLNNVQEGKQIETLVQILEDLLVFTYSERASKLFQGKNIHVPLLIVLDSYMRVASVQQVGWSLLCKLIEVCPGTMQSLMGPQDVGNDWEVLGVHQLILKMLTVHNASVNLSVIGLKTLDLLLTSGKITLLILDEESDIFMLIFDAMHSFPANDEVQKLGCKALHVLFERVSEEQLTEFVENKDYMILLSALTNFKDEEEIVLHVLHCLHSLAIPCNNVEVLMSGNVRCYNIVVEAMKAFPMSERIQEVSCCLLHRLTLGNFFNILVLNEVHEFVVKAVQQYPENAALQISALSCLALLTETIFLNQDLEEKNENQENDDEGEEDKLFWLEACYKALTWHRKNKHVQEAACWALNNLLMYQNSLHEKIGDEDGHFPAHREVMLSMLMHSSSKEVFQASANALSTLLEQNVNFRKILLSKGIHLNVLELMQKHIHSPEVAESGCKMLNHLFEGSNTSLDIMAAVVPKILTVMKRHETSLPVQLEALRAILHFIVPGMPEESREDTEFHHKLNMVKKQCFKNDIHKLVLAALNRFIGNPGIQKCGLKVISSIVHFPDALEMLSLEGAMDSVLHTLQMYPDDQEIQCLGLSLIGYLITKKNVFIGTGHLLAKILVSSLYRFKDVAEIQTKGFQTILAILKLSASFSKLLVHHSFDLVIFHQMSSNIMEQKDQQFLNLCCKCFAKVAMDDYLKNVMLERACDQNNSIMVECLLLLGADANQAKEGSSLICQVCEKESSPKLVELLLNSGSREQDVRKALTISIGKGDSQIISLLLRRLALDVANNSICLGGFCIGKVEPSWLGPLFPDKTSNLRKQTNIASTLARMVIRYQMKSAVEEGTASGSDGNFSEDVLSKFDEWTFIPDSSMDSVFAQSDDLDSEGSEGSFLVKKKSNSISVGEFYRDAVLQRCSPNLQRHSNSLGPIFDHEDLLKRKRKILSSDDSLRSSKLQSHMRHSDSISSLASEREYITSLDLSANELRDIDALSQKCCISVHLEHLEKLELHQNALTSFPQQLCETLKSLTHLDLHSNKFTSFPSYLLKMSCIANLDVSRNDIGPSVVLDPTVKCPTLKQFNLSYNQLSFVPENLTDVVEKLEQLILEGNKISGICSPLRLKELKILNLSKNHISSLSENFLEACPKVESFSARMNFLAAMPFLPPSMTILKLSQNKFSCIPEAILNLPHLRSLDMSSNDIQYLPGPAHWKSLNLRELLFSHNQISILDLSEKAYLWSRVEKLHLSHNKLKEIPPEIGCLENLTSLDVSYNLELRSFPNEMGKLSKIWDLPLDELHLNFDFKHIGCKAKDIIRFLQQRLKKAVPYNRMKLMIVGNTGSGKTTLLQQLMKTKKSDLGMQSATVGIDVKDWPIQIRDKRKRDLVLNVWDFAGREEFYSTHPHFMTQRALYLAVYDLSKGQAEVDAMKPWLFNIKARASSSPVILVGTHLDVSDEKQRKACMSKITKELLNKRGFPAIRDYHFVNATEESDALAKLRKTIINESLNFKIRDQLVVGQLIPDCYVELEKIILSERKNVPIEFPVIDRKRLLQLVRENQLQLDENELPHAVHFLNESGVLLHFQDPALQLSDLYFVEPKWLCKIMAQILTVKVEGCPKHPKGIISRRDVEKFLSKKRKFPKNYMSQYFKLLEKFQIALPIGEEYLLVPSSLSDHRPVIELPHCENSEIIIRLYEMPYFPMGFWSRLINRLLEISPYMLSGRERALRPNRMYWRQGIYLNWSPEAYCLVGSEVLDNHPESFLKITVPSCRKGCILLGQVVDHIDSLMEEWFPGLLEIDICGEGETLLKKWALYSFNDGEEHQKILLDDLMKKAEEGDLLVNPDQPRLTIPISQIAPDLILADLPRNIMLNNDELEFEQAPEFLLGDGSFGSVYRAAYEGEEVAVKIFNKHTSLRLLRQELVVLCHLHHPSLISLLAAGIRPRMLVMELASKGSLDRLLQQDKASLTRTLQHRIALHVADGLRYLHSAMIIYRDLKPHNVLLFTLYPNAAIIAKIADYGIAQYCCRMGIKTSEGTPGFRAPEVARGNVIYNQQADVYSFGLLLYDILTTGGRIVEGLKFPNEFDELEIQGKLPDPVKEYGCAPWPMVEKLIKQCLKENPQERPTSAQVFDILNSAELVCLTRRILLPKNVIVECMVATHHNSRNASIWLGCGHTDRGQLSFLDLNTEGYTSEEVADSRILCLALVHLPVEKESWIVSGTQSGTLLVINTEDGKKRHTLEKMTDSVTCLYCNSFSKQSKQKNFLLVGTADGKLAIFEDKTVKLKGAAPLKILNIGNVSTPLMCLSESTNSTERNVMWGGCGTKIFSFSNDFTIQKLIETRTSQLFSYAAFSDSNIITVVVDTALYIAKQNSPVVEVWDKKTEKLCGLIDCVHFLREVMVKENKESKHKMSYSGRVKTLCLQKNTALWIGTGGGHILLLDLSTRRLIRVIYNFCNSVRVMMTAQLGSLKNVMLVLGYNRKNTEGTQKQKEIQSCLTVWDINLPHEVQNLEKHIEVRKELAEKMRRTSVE
Sequence of Platelet-derived growth factor receptor alpha (P16234 24-1089 D842V limits assumed): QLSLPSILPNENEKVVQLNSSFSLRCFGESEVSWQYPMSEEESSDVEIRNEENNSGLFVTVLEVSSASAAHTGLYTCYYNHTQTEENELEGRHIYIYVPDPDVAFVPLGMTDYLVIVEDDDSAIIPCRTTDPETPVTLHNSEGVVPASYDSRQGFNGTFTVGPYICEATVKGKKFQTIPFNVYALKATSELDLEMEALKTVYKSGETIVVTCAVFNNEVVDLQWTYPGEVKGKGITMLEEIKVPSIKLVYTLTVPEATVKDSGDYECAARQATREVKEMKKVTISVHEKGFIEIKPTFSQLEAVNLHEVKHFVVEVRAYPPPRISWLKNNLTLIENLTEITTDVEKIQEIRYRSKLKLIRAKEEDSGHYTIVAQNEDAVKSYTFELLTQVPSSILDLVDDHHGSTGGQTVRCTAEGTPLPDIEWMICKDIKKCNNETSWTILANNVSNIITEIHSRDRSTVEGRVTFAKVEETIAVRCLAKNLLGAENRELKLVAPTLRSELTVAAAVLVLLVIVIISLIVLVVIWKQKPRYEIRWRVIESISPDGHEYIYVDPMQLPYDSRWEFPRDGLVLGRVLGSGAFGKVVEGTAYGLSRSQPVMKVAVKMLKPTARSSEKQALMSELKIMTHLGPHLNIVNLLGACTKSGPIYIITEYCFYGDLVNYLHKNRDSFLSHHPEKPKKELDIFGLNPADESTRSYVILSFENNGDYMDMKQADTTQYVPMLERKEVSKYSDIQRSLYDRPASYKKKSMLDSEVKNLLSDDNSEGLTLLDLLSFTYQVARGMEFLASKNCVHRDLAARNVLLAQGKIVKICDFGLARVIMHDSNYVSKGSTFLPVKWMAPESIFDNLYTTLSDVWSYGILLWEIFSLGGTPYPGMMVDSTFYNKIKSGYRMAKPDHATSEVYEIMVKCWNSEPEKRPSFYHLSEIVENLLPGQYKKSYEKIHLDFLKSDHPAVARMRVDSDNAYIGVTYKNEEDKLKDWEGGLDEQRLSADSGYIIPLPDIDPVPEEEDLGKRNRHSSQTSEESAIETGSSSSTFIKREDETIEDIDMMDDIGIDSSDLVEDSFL
Sequence of Mast/stem cell growth factor receptor Kit (P10721 26-976 D816V limits assumed): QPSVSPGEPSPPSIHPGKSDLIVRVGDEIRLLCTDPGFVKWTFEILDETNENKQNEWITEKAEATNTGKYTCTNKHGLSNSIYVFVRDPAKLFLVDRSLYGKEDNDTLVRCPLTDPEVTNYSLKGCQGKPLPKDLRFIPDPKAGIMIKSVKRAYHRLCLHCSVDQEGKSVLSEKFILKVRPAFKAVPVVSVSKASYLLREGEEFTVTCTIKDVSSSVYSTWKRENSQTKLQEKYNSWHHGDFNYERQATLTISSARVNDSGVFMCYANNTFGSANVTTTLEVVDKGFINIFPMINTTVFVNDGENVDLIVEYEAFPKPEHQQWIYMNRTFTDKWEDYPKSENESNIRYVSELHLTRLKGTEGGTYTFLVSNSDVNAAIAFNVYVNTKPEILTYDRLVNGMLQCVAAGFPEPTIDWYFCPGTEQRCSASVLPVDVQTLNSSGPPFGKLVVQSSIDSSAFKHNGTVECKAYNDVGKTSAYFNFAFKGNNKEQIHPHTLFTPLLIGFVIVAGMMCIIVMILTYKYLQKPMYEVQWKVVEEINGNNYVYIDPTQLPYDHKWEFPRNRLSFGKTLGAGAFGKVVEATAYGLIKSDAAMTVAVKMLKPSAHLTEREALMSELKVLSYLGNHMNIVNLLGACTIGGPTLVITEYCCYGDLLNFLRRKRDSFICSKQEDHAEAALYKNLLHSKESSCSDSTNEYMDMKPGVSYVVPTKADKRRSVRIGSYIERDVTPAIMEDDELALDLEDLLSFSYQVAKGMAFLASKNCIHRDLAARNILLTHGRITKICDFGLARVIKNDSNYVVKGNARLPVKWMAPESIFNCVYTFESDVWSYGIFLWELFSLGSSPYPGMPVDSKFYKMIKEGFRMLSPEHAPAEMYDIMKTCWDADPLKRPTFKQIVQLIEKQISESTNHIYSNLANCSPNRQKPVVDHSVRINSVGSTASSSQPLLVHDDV
Sequence of Protease (Q9YQ12 whole entry): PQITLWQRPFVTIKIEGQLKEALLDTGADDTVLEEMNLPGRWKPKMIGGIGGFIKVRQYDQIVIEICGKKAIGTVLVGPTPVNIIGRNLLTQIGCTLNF

As a reminder, the solubility is the concentration that dissolves in the medium under given conditions. In data set [1], `Nc1cncc(-c2cn3ccnc3c(Nc3ccc(N4CCN(C5COC5)CC4)cc3)n2)n1` [LANRAPLENIB] gave a solubility above 100 µM. Moreover, the CLH in data set [2] was below 1.83 mL/min/kg. By IC50 is commonly meant the concentration that gives 50% inhibition. `Cc1ccc2ccc(N[C@H]3CC[C@H](CNc4ncc(C(F)(F)C(=O)NC5COC5)cn4)CC3)nc2c1Cl` yielded a half-maximal inhibitory concentration (IC50) in data set [3] below 10 nM. On to `O=C1NCCCOc2ccc3[nH]nc(c3c2)-c2cc(cc(N3CCC4(COC4)C3)c2)CO1`, for which the IC50 in data set [4] is below 10 nM. In data set [5], `CC(C)(C)Cn1cc(Nc2ncc3c(Cl)c(N4CCN(C5(C)COC5)CC4)ccc3n2)cn1` gave a half-inhibitory concentration (IC50) of 9.7 nM. As for `C[C@](N)(c1ccc(F)cc1)c1cnc(N2CCN(c3ncnn4cc(-c5cnn(CC6COC6)c5)cc34)CC2)nc1`, the half-inhibitory concentration (IC50) in data set [6] and in data set [7] was below 4.5 nM in each case.

The EC50 is the concentration at which the effect is half-maximal. Low readings indicate a more potent agent, high ones a less potent agent. Compound `COC(=O)N[C@H](C(=O)N[C@@H](Cc1ccc(C#Cc2ccc(N3CC4CCC(C3)N4C3COC3)nc2)cc1)[C@@H](O)CN(Cc1c(F)cc(-c2ccn(C(F)F)n2)cc1F)NC(=O)[C@@H](NC(=O)OC)C(C)(C)C(F)(F)F)C(C)(C)C(F)(F)F` displayed an EC50 at Protease of 4.8 nM. In other words, the single-digit nanomolar range. In the case of `c1cn2cc(-c3ccc4cn[nH]c4c3)nc(Nc3ccc(N4CCOCC4)cc3)c2n1` [ENTOSPLETINIB], in data set [2], the CLH came out at 5.17 mL/min/kg.
